The values that follow come from patent publication US20230340011A1 (Asteroid Therapeutics, priority 2022, published 2023).

A word on the IC50: it is the concentration at which inhibition is half-maximal. A lower IC50 goes with higher potency.

Structures are written as SMILES. Bounds are passed on as bounds.

The target in one test is LXRβ (Homo sapiens (Human), UniProt P55055). Description: In vitro assay LXRβ: PathHunter NHR CHO cells, LXRβ / Steroid Receptor Co-activator Peptide enzyme fragment complementation. Type of test: cell-based. As to conditions: PathHunter NHR CHO cells, full-length human LXRβ and SRCP, chemiluminescent signal; read-out: LXRβ PPI. An outline of the steps:
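Enzyme fragment complementation read-out: CHO cells stably expressing ProLink-tagged full-length human LXRβ plus nuclear enzyme acceptor–SRCP fusion, seeded and held overnight at 37° C. Medium with charcoal-dextran filtered serum; final vehicle 1%. Chemiluminescence measured after signal generation.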

The next test addresses SREBP-2 (Homo sapiens (Human), UniProt Q12772). Description: In vitro assay SREBP-2: PathHunter U2OS SREBP-2 Nuclear Translocation Cell Line, U18666A-stimulated. Format: cell-based. Conditions: PathHunter U2OS SREBP-2 nuclear translocation cells, U18666A 10 μM, overnight (16 hours).

Chain of LXRβ (P55055 whole entry, the tested form may be a part): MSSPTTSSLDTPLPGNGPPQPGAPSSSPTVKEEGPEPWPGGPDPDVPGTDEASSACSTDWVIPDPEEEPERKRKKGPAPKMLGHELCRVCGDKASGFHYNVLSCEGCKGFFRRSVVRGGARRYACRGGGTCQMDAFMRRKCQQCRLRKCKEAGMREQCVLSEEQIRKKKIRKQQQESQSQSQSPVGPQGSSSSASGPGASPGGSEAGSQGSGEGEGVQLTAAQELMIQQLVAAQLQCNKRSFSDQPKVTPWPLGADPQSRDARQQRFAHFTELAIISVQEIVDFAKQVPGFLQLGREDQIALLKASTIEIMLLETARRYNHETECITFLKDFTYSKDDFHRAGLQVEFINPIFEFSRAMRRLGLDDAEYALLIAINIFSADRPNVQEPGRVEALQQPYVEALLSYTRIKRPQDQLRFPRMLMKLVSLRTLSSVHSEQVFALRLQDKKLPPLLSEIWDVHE

`C[C@H](CCC(=O)N1CCNS(=O)(=O)CC1)[C@H]1CC[C@H]2[C@@H]3CC=C4C[C@@H](O)CC[C@]4(C)[C@H]3CC[C@]12C` [Example 354, 5-[(4R)-4-[(1R,3aS,3bS,7S,9aR,9bS,11aR)-7-hydroxy-9a,11a-dimethyl-1H,2H,3H,3aH,3bH,4H,6H,7H,8H,9H,9aH,9bH,10H,11H,11aH-cyclopenta[a]phenanthren-1-yl]pentanoyl]-1λ^6,2,5-thiadiazepane-1,1-dione]: the EC50 at LXRβ was over 10000 nM. At SREBP-2, the IC50 was under 250 nM.

Turning to `C[C@H](CCC(=O)N1CCS(=O)(=O)[C@H](C)C1)[C@H]1CC[C@H]2[C@@H]3CC=C4C[C@@H](O)CC[C@]4(C)[C@H]3CC[C@]12C` [Example 356, (2R)-4-[(4R)-4-[(1R,3aS,3bS,7S,9aR,9bS,11aR)-7-hydroxy-9a,11a-dimethyl-1H,2H,3H,3aH,3bH,4H,6H,7H,8H,9H,9aH,9bH,10H,11H,11aH-cyclopenta[a]phenanthren-1-yl]pentanoyl]-2-methyl-1 λ^6-thiomorpholine-1,1-dione], at LXRβ, the EC50 is over 10000 nM. The 50% inhibitory concentration (IC50) on SREBP-2 is under 250 nM.

With `C[C@H](CCC(=O)N1CCS(=O)(=O)C1)[C@H]1CC[C@H]2[C@@H]3CC=C4C[C@@H](O)CC[C@]4(C)[C@H]3CC[C@]12C` [Example 357, (R)-1-(1,1-dioxidothiazolidin-3-yl)-4-((3S,8S,9S,10R,13R,14S,17R)-3-hydroxy-10,13-dimethyl-2,3,4,7,8,9,10,11,12,13,14,15,16,17-tetradecahydro-1H-cyclopenta[a]phenanthren-17-yl)pentan-1-one], the EC50 on LXRβ was over 10000 nM. In addition, the IC50 on SREBP-2 is under 250 nM.

Consider `C[C@H](CCC(=O)N1CCN(S(=O)(=O)N(C)C)CC1)[C@H]1CC[C@H]2[C@@H]3CC=C4C[C@@H](O)CC[C@]4(C)[C@H]3CC[C@]12C` [Example 358, 4-((R)-4-((3S,8S,9S,10R,13R,14S,17R)-3-hydroxy-10,13-dimethyl-2,3,4,7,8,9,10,11,12,13,14,15,16,17-tetradecahydro-1H-cyclopenta[a]phenanthren-17-yl)pentanoyl)-N,N-dimethylpiperazine-1-sulfonamide], for which, on LXRβ, the EC50 is over 10000 nM. The molecule also came in with a half-maximal inhibitory concentration (IC50) on SREBP-2 of under 250 nM.

With `C[C@H](CCC(=O)N1CCN(S(N)(=O)=O)CC1)[C@H]1CC[C@H]2[C@@H]3CC=C4C[C@@H](O)CC[C@]4(C)[C@H]3CC[C@]12C` [Example 359, 4-[(4R)-4-[(1R,3aS,3bS,7S,9aR,9bS,11aR)-7-hydroxy-9a,11a-dimethyl-1H,2H,3H,3aH,3bH,4H,6H,7H,8H,9H,9aH,9bH,10H,11H,11aH-cyclopenta[a]phenanthren-1-yl]pentanoyl]piperazine-1-sulfonamide], the EC50 at LXRβ was over 10000 nM. Further, the IC50 against SREBP-2 was under 250 nM.

In the case of `COC(=O)N1CCN(C(=O)CC[C@@H](C)[C@H]2CC[C@H]3[C@@H]4CC=C5C[C@@H](O)CC[C@]5(C)[C@H]4CC[C@]23C)CC1` [Example 360, methyl 4-((R)-4-((3S,8S,9S,10R,13R,14S,17R)-3-hydroxy-10,13-dimethyl-2,3,4,7,8,9,10,11,12,13,14,15,16,17-tetradecahydro-1H-cyclopenta[a]phenanthren-17-yl)pentanoyl)piperazine-1-carboxylate], on LXRβ, the EC50 is over 10000 nM. At SREBP-2, this molecule showed a half-inhibitory concentration (IC50) of under 250 nM.

Regarding `C[C@H](CCC(=O)N1CCN(C)C(=O)C1)[C@H]1CC[C@H]2[C@@H]3CC=C4C[C@@H](O)CC[C@]4(C)[C@H]3CC[C@]12C` [Example 361, 4-[(4R)-4-[(1R,3aS,3bS,7S,9aR,9bS,11aR)-7-hydroxy-9a,11a-dimethyl-1H,2H,3H,3aH,3bH,4H,6H,7H,8H,9H,9aH,9bH,10H,11H,11aH-cyclopenta[a]phenanthren-1-yl]pentanoyl]-1-methylpiperazin-2-one], on LXRβ, the EC50 was over 10000 nM. On SREBP-2, this molecule came in with an IC50 of 250 to 1000 nM.

`C[C@H](CCC(=O)N1CCNC(=O)C1)[C@H]1CC[C@H]2[C@@H]3CC=C4C[C@@H](O)CC[C@]4(C)[C@H]3CC[C@]12C` [Example 362, 4-[(4R)-4-[(1R,3aS,3bS,7S,9aR,9bS,11aR)-7-hydroxy-9a,11a-dimethyl-1H,2H,3H,3aH,3bH,4H,6H,7H,8H,9H,9aH,9bH,10H,11H,11aH-cyclopenta[a]phenanthren-1-yl]pentanoyl]piperazin-2-one]: the EC50 on LXRβ was over 10000 nM. The half-maximal inhibitory concentration (IC50) at SREBP-2 fell in the range of 250 to 1000 nM.

Regarding `C[C@H](CCC(=O)N1CCN(C(=O)c2nnnn2C)CC1)[C@H]1CC[C@H]2[C@@H]3CC=C4C[C@@H](O)CC[C@]4(C)[C@H]3CC[C@]12C` [Example 363, (R)-4-((3S,8S,9S,10R,13R,14S,17R)-3-hydroxy-10,13-dimethyl-2,3,4,7,8,9,10,11,12,13,14,15,16,17-tetradecahydro-1H-cyclopenta[a]phenanthren-17-yl)-1-(4-(1-methyl-1H-tetrazole-5-carbonyl)piperazin-1-yl)pentan-1-one], the EC50 on LXRβ was over 10000 nM. The IC50 against SREBP-2 is under 250 nM.

For `CNC(=O)NCC1(C)CCN(C(=O)CC[C@@H](C)[C@H]2CC[C@H]3[C@@H]4CC=C5C[C@@H](O)CC[C@]5(C)[C@H]4CC[C@]23C)CC1` [Example 364, 1-((1-((R)-4-((3S,8S,9S,10R,13R,14S,17R)-3-hydroxy-10,13-dimethyl-2,3,4,7,8,9,10,11,12,13,14,15,16,17-tetradecahydro-1H-cyclopenta[a]phenanthren-17-yl)pentanoyl)-4-methylpiperidin-4-yl)methyl)-3-methylurea], the EC50 on LXRβ was over 10000 nM. Also, the concentration for half-maximal inhibition (IC50) against SREBP-2 was under 250 nM.

For the molecule `C[C@H](CCC(=O)N1CCC(C)(CNC(=O)C(C)(C)O)CC1)[C@H]1CC[C@H]2[C@@H]3CC=C4C[C@@H](O)CC[C@]4(C)[C@H]3CC[C@]12C` [Example 365, 2-hydroxy-N-((1-((R)-4-((3S,8S,9S,10R,13R,14S,17R)-3-hydroxy-10,13-dimethyl-2,3,4,7,8,9,10,11,12,13,14,15,16,17-tetradecahydro-1H-cyclopenta[a]phenanthren-17-yl)pentanoyl)-4-methylpiperidin-4-yl)methyl)-2-methylpropanamide], the EC50 at LXRβ was over 10000 nM. This molecule also came in with a half-maximal inhibitory concentration (IC50) against SREBP-2 of under 250 nM.

Turning to `C[C@H](CCC(=O)N1CCC(C)(CNS(C)(=O)=O)CC1)[C@H]1CC[C@H]2[C@@H]3CC=C4C[C@@H](O)CC[C@]4(C)[C@H]3CC[C@]12C` [Example 367, N-({1-[(4R)-4-[(1R,3aS,3bS,7S,9aR,9bS,11aR)-7-hydroxy-9a,11a-dimethyl-1H,2H,3H,3aH,3bH,4H,6H,7H,8H,9H,9aH,9bH,10H,11H,11aH-cyclopenta[a]phenanthren-1-yl]pentanoyl]-4-methylpiperidin-4-yl}methyl)methanesulfonamide], the EC50 on LXRβ is over 10000 nM. On SREBP-2, this molecule gave a half-maximal inhibitory concentration (IC50) of under 250 nM.

For `C[C@H](CCc1ccccn1)[C@H]1CC[C@H]2[C@@H]3CC=C4C[C@@](C)(O)CC[C@]4(C)[C@H]3CC[C@]12C` [Example 369, (3S,8S,9S,10R,13R,14S,17R)-3,10,13-trimethyl-17-((R)-4-(pyridin-2-yl)butan-2-yl)-2,3,4,7,8,9,10,11,12,13,14,15,16,17-tetradecahydro-1H-cyclopenta[a]phenanthren-3-ol], the EC50 on LXRβ lay within 1000 to 10000 nM. The molecule also displayed a 50% inhibitory concentration (IC50) on SREBP-2 of 250 to 1000 nM.

In the case of `C[C@H](CCC(=O)N1CC2(C1)CC(C)(CO)C2)[C@H]1CC[C@H]2[C@@H]3CC=C4C[C@@H](O)CC[C@]4(C)[C@H]3CC[C@]12C` [Example 372, (R)-4-((3S,8S,9S,10R,13R,14S,17R)-3-hydroxy-10,13-dimethyl-2,3,4,7,8,9,10,11,12,13,14,15,16,17-tetradecahydro-1H-cyclopenta[a]phenanthren-17-yl)-1-(6-(hydroxymethyl)-6-methyl-2-azaspiro[3.3]heptan-2-yl)pentan-1-one], the EC50 on LXRβ was over 10000 nM. The half-maximal inhibitory concentration (IC50) on SREBP-2 is under 250 nM.

On to `C[C@H](CCC(=O)N1CCCC(C)(CO)CC1)[C@H]1CC[C@H]2[C@@H]3CC=C4C[C@@H](O)CC[C@]4(C)[C@H]3CC[C@]12C` (stereo partly drawn) [Example 375, (4R)-4-((3S,8S,9S,10R,13R,14S,17R)-3-hydroxy-10,13-dimethyl-2,3,4,7,8,9,10,11,12,13,14,15,16,17-tetradecahydro-1H-cyclopenta[a]phenanthren-17-yl)-1-(4-(hydroxymethyl)-4-methylazepan-1-yl)pentan-1-one], for which the EC50 on LXRβ is over 10000 nM. This molecule also gave a 50% inhibitory concentration (IC50) against SREBP-2 of under 250 nM.

As for `C[C@H](CCC(=O)N1CCC(CO)CC1)[C@H]1CC[C@H]2[C@@H]3CC=C4C[C@@H](O)CC[C@]4(C)[C@H]3CC[C@]12C` [Example 376, (4R)-4-[(1R,3aS,3bS,7S,9aR,9bS,11aR)-7-hydroxy-9a,11a-dimethyl-1H,2H,3H,3aH,3bH,4H,6H,7H,8H,9H,9aH,9bH,10H,11H,11aH-cyclopenta[a]phenanthren-1-yl]-1-[4-(hydroxymethyl)piperidin-1-yl]pentan-1-one], the EC50 at LXRβ fell in the range of 250 to 1000 nM. Also, the IC50 at SREBP-2 was under 250 nM.

On to `CC(O)C1CCN(C(=O)CC[C@@H](C)[C@H]2CC[C@H]3[C@@H]4CC=C5C[C@@H](O)CC[C@]5(C)[C@H]4CC[C@]23C)CC1` (stereo partly drawn) [Example 377, (4R)-4-[(1R,3aS,3bS,7S,9aR,9bS,11aR)-7-hydroxy-9a,11a-dimethyl-1H,2H,3H,3aH,3bH,4H,6H,7H,8H,9H,9aH,9bH,10H,11H,11aH-cyclopenta[a]phenanthren-1-yl]-1-[4-(1-hydroxyethyl)piperidin-1-yl]pentan-1-one], for which the EC50 at LXRβ is 250 to 1000 nM. This molecule also yielded a 50% inhibitory concentration (IC50) on SREBP-2 of under 250 nM.
